Columns and labels:
Conditions in all cases: incubation time: 72 h
[1] = system: HCC1599; assay: normalised response (% of control), CellTox Green; higher = less cell death (100 = DMSO, 0 = benzethonium chloride kill control)
Procedure, shortened: (§1)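 For each plate, 0.1 % DMSO was set to 100 and a positive kill control to 0. Breast cancer cell lines (20 µl suspension) were seeded into 384-well plates already holding compound at 5 concentrations in 10-fold steps over a 10,000-fold range chosen per compound, and incubated for 72 h. CellTox Green fluorescence at 485/520 nm was read before CellTiter-Glo luminescence, which followed 10 min at room temperature. Each value is the normalised signal at one concentration.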

[2] = system: DU-4475; assay: as above
Procedure, shortened: as §1

[3] = system: MDA-MB-231; assay: as above
Procedure, shortened: as §1

[4] = system: MFM-223; assay: as above
Procedure, shortened: as §1

[5] = system: CAL-148; assay: as above
Procedure, shortened: as §1

[6] = system: HDQ-P1; assay: as above
Procedure, shortened: as §1

[7] = system: CAL-85-1; assay: as above
Procedure, shortened: as §1

[8] = system: CAL-120; assay: as above
Procedure, shortened: as §1

[9] = system: MCF-10A; assay: as above
Procedure, shortened: as §1

[10] = system: Hs578T; assay: as above
Procedure, shortened: as §1

[11] = system: MDA-MB-436; assay: as above
Procedure, shortened: as §1

[12] = system: BT-474; assay: as above
Procedure, shortened: as §1

[13] = system: HCC1143; assay: as above
Procedure, shortened: as §1

[14] = system: MDA-MB-453; assay: as above
Procedure, shortened: as §1

[15] = system: CAL-51; assay: as above
Procedure, shortened: as §1

[16] = system: BT-549; assay: as above
Procedure, shortened: as §1

[17] = system: HCC1937; assay: normalised response (% of control), CellTiter-Glo; higher = more viable cells (100 = DMSO, 0 = benzethonium chloride kill control)
Description: (§2)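 DSRT, 72 h incubation, CellTox Green / CellTiter-Glo readout. Signal is normalised to DMSO and benzethonium chloride controls. Value is the normalised response at dose 3.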

[18] = system: HCC1599; assay: as above
Description: as §2

[19] = system: DU-4475; assay: as above
Description: as §2

[20] = system: MDA-MB-231; assay: as above
Description: as §2

[21] = system: MFM-223; assay: as above
Description: as §2

[22] = system: CAL-148; assay: as above
Description: as §2

[23] = system: HDQ-P1; assay: as above
Description: as §2

[24] = system: CAL-85-1; assay: as above
Description: as §2

[25] = system: MDA-MB-468; assay: as above
Description: as §2

[26] = system: SK-BR-3; assay: as above
Description: as §2

[27] = system: CAL-120; assay: as above
Description: as §2

[28] = system: MCF-10A; assay: as above
Description: as §2

[29] = system: Hs578T; assay: as above
Description: as §2

[30] = system: MDA-MB-436; assay: as above
Description: as §2

[31] = system: BT-474; assay: as above
Description: as §2

[32] = system: HCC1143; assay: as above
Description: as §2

[33] = system: MDA-MB-453; assay: as above
Description: as §2

[34] = system: CAL-51; assay: as above
Description: as §2

[35] = system: BT-549; assay: as above
Description: as §2

[36] = system: HCC1937; assay: normalised response (% of control), CellTox Green; higher = less cell death (100 = DMSO, 0 = benzethonium chloride kill control)
Procedure, shortened: as §1

[37] = system: MDA-MB-468; assay: as above
Procedure, shortened: as §1

Row | SMILES | normalised response [1] [%] | normalised response [2] [%] | normalised response [3] [%] | normalised response [4] [%] | normalised response [5] [%] | normalised response [6] [%] | normalised response [7] [%] | normalised response [8] [%] | normalised response [9] [%] | normalised response [10] [%] | normalised response [11] [%] | normalised response [12] [%] | normalised response [13] [%] | normalised response [14] [%] | normalised response [15] [%] | normalised response [16] [%] | normalised response [17] [%] | normalised response [18] [%] | normalised response [19] [%] | normalised response [20] [%] | normalised response [21] [%] | normalised response [22] [%] | normalised response [23] [%] | normalised response [24] [%] | normalised response [25] [%] | normalised response [26] [%] | normalised response [27] [%] | normalised response [28] [%] | normalised response [29] [%] | normalised response [30] [%] | normalised response [31] [%] | normalised response [32] [%] | normalised response [33] [%] | normalised response [34] [%] | normalised response [35] [%] | normalised response [36] [%] | normalised response [37] [%]
1 | Cc1c(C(=O)Nc2ccc(N3C[C@@H](C)O[C@@H](C)C3)nc2)cccc1-c1ccc(OC(F)(F)F)cc1 [Erismodegib] (100 nM) | 110 | 95.8 | 97.2 | 97.2 | 105 | 99.6 | 88.8 | 94.8 | 94.9 | 109 | 101 | 97.1 | 98.8 | 98.6 | 93.3 | 104 | 103 | 93.5 | 99.4 | 99.9 | 85.6 | 92.7 | 91.3 | 92.6 | 90.4 | 88.6 | 101 | 89.6 | 101 | 92.3 | 91.2 | 96.4 | 85 | 68.9 | 102 |  | 
2 | C[C@@H]1C[C@H]2[C@@H]3CCC4=CC(=O)C=C[C@]4(C)[C@@]3(F)[C@@H](O)C[C@]2(C)[C@@]1(O)C(=O)CO [Dexamethasone] (100 nM) | 96 | 96.4 |  | 95.7 | 97.2 |  | 107 | 96.7 | 97 | 114 | 67.3 | 96.4 | 101 | 95.5 | 99.4 | 101 | 99 | 95.2 | 102 | 154 | 95.7 | 91.2 | 84.8 | 113 | 103 | 88.4 | 72.8 | 84.3 | 92.5 | 101 | 145 | 101 | 83.8 | 101 | 103 | 68 | 97.2
3 | N[C@@H](Cc1ccc(N(CCCl)CCCl)cc1)C(=O)O [Melphalan] (125 nM) | 88.9 | 107 | 50.5 | 96.1 | 89.5 | 108 | 104 | 101 | 98.4 |  | 103 | 102 | 102 | 76.5 | 75.1 | 103 | 83.4 | 104 | 92.7 | 83.3 | 91.5 | 78.3 | 90.1 | 105 | 75.4 | 84.8 | 108 | 103 | 93.1 | 98.1 | 91.5 | 90.2 | 79.2 | 67.5 | 100 | 99.1 | 87.3
